For orientation: IC50 means the concentration at which inhibition is half-maximal.

Read-outs that look alike come from different tables or passages of the source.

Assay [1] deals with Phosphorylation of ERK1/2 in A549 cells. As to the kind of experiment: Phospho-ERK1/2 MSD assay in A549 cells. The class given is cell-based. To be noted: read-out: p-ERK IC50 (2 h, A549; μM), 2 h compound treatment, A549 cells, EGF stimulated. The method, boiled down:
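MSD electrochemiluminescent read-out of phospho-ERK1/2 in RIPA lysates. Cells in RPMI 1640 with 10% FBS received titrated compound for 2 or 4 h, then 10 ng/mL EGF for 10 min before ice-cold PBS wash and lysis.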

For assay [2], the system named is Phosphorylation of ERK1/2 in MIA PaCa-2 cells. As to the kind of experiment: Phospho-ERK1/2 MSD assay in MIA PaCa-2 cells. The class given is cell-based. The note with it: read-out: p-ERK IC50 (2 h, MiaPaCa-2; μM), 2 h compound treatment, MIA PaCa-2 cells, EGF stimulated. The essentials: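 Phospho-ERK1/2 measured by MSD electrochemiluminescence kit in RIPA lysates of MIA PaCa-2 cells. Cells were treated with compound titrations for 2 or 4 h at 37 °C, 5% CO2, followed by a 10 min pulse of 10 ng/mL EGF.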

Assay [3] has as its target GDP-bound KRAS protein (aa 1-169), containing both G12C and C118A amino acid substitutions (Homo sapiens (Human), UniProt P01116, C118A/G12C). As to the kind of experiment: Coupled nucleotide exchange assay (SOS-mediated nucleotide exchange, AlphaScreen). The class given is biochemical. To be noted: read-out: Coupled exchange IC50 (5 min; μM); 5 min compound pre-incubation. (In general: Bead proximity is the source of the signal in Alpha formats.)

Chain of GDP-bound KRAS protein (aa 1-169), containing both G12C and C118A amino acid substitutions (P01116 other isoform, or with tags, fused parts or gaps G12C/C118A): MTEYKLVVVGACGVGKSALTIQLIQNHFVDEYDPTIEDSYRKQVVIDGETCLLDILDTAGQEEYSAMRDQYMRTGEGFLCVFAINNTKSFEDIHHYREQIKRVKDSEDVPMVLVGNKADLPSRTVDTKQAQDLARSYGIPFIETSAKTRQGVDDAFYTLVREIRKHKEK

As for `C=CC(=O)N1C[C@H](C)N(c2nc(=O)n(-c3c(C)cc(CN(C)C)nc3C(C)C)c3nc(-c4ccccc4F)c(Cl)cc23)C[C@H]1C` [Example 121-1, 4-((2S,5R)-4-Acryloyl-2,5-dimethylpiperazin-1-yl)-6-chloro-1-(6-((dimethylamino)methyl)-2-isopropyl-4-methylpyridin-3-yl)-7-(2-fluorophenyl)pyrido[2,3-d]pyrimidin-2(1H)-one], the IC50 in assay [1] (Homo sapiens, A549, 2 h) was above 7.5 µM; in assay [2] (Homo sapiens, MIA PaCa-2, 2 h), 0.086 µM; in assay [3], 0.195 µM.

Regarding `C=CC(=O)N1C[C@H](C)N(c2nc(=O)n(-c3c(C)cc(CN4CCCC4)nc3C(C)C)c3nc(-c4ccccc4F)c(Cl)cc23)C[C@H]1C` [Example 121-2, 6-Chloro-4-[(2S,5R)-2,5-dimethyl-4-prop-2-enoyl-piperazin-1-yl]-7-(2-fluorophenyl)-1-[2-isopropyl-4-methyl-6-(pyrrolidin-1-ylmethyl)-3-pyridyl]pyrido[2,3-d]pyrimidin-2-one], the IC50 in assay [1] (Homo sapiens, A549, 2 h) was above 7.5 µM; in assay [2] (Homo sapiens, MIA PaCa-2, 2 h) it was 0.081 µM; in assay [3], 0.096 µM.

As to `C=CC(=O)N1[C@H](C)CN(c2nc(=O)n(-c3c(C(C)C)ccnc3C(C)C)c3nc(-c4ccccc4C)c(Cl)cc23)C[C@@H]1C` [Example 124-11, 6-Chloro-1-(2,4-diisopropyl-3-pyridyl)-4-[(3R,5S)-3,5-dimethyl-4-prop-2-enoyl-piperazin-1-yl]-7-(o-tolyl)pyrido[2,3-d]pyrimidin-2-one], the IC50 in assay [1] (Homo sapiens, A549, 2 h) is above 7.5 µM; in assay [2] (Homo sapiens, MIA PaCa-2, 2 h) it was 0.098 µM; in assay [3], 0.075 µM.

In the case of `C=CC(=O)N1C[C@H](C)N(c2nc(=O)n(-c3c(C(C)C)ccnc3C(C)C)c3nc(-c4ccccc4F)c(Cl)cc23)C[C@H]1C` [Example 125-1, 4-((2S,5R)-4-Acryloyl-2,5-dimethylpiperazin-1-yl)-6-chloro-1-(2,4-diisopropylpyridin-3-yl)-7-(2-fluorophenyl)pyrido[2,3-d]pyrimidin-2(1H)-one], the IC50 in assay [1] is above 7.5 µM; in assay [2] it was 0.055 µM; in assay [3], 0.028 µM.

`C=CC(=O)N1[C@H](C)CN(c2nc(=O)n(-c3c(C(C)C)ccnc3C(C)C)c3nc(-c4ccccc4C)c(Cl)cc23)C[C@@H]1C` [Example 125-11, 6-Chloro-1-(2,4-diisopropyl-3-pyridyl)-4-[(3R,5S)-3,5-dimethyl-4-prop-2-enoyl-piperazin-1-yl]-7-(o-tolyl)pyrido[2,3-d]pyrimidin-2-one]: the IC50 in assay [1] was above 7.5 µM; in assay [2] it was 0.187 µM; in assay [3], 0.091 µM.

Turning to `C=CC(=O)N1C[C@H](C)N(c2nc(=O)n(-c3c(C)ccnc3C(C)C)c3nc(-c4cccc(F)c4NC(C)=O)c(Cl)cc23)C[C@H]1C` [Example 129-12, N[2-(6-Chloro-4-[(2S,5R)-2,5-dimethyl-4-prop-2-enoyl-piperazin-1-yl]-1-(2-isopropyl-4-methyl-3-pvridyl)-2-oxo-pyrido[2,3-d]pyrimidin-7-yl]-6-fluoro-phenyl]acetamide], the IC50 in assay [1] (Homo sapiens, A549, 2 h) was above 7.5 µM; in assay [2] (Homo sapiens, MIA PaCa-2, 2 h), 0.39 µM; in assay [3] it was 0.167 µM.

With `C=CC(=O)N1C[C@H](C)N(c2nc(=O)n(-c3c(CN4CCCC4)ccnc3C(C)C)c3nc(-c4ccccc4C(C)C)c(Cl)cc23)C[C@H]1C` [Example 141-3, 6-Chloro-4-[(2S,5R)-2,5-dimethyl-4-prop-2-enoyl-piperazin-1-yl]-7-(2-isopropylphenyl)-1-[2-isopropyl-4-(pyrrolidin-1-ylmethyl)-3-pyridyl]pyrido[2,3-d]pyrimidin-2-one], the IC50 is above 7.5 µM in assay [1] (Homo sapiens, A549, 2 h); 0.331 µM in assay [2] (Homo sapiens, MIA PaCa-2, 2 h); 0.197 µM in assay [3].

`C=CC(=O)N1CCN(c2nc(=O)n(CC(C)(C)C)c3nc(-c4ccccc4F)c(Cl)cc23)CC1CC#N` (stereo not drawn) [Example 145-1, 2-[4-[6-Chloro-1-(2,2-dimethylpropyl)-7-(2-fluorophenyl)-2-oxo-pyrido[2,3-d]pyrimidin-4-yl]-1-prop-2-enoyl-piperazin-2-yl]acetonitrile]: the IC50 was determined as 5.75 µM in assay [1] (Homo sapiens, A549, 2 h); 10 µM in assay [2]; 2.07 µM in assay [3].

`C=CC(=O)N1CCN(c2nc(=O)n(CC(C)(C)C)c3nc(-c4ccccc4F)c(Cl)cc23)C(CC#N)C1` (stereo not drawn) [Example 145-3, 2-[1-[6-Chloro-1-(2,2-dimethypropyl)-7-(2-fluorophenyl)-2-oxo-pyrido[2,3-d]pyrimidin-4-yl]-4-prop-2-enoyl-piperazin-2-yl]acetonitrile]: the IC50 turned out to be 4.41 µM in assay [1] (Homo sapiens, A549, 2 h); 10 µM in assay [2] (Homo sapiens, MIA PaCa-2, 2 h); 3.82 µM in assay [3].

As to `C=CC(=O)N1C[C@H](C)N(c2nc(=O)n3c4nc(c(Cl)cc24)-c2ccccc2OC/C=C/Cc2ccccc2-3)C[C@H]1C` [Example 146-4, 20-chloro-23-((2S,5R)-2,5-dimethyl-4-(2-propenoyl)-1-piperazinyl)-12-oxa-1,24,27-triazapentacyclo[17.6.2.0~2,7~.0~13,18~.0~22,26~]heptacosa-2,4,6,9,13,15,17,19,21,23,26-undecaen-25-one], the IC50 is above 7.5 µM in assay [1] (Homo sapiens, A549, 2 h); 4.19 µM in assay [2] (Homo sapiens, MIA PaCa-2, 2 h); 8.13 µM in assay [3].

Turning to `C=CC(=O)N1C[C@H](C)N(c2nc(=O)n(-c3c(C(C)C)ncnc3C(C)C)c3nc(-c4ccc(F)cc4F)c(F)cc23)C[C@H]1C` [Example 153, 7-(2,4-Difluorophenyl)-1-(4,6-diisopropylpyrimidin-5-yl)-4-[(2S,5R)-2,5-dimethyl-4-prop-2-enoyl-piperazin-1-yl]-6-fluoro-pyrido[2,3-d]pyrimidin-2-one], the IC50 was above 7.5 µM in assay [1] (Homo sapiens, A549, 2 h); 0.264 µM in assay [2] (Homo sapiens, MIA PaCa-2, 2 h); 0.38 µM in assay [3].

Turning to `C=CC(=O)N1C[C@H](C)N(c2nc(=O)n(-c3c(C(C)C)nc(OC)nc3C(C)C)c3nc(-c4ccccc4F)c(Cl)cc23)C[C@H]1C` [Example 154, 6-Chloro-1-(4,6-diisopropyl-2-methoxy-pyrimidin-5-yl)-4-[(2S,5R)-2,5-dimethyl-4-prop-2-enoyl-piperazin-1-yl]-7-(2-fluorophenyl)pyrido[2,3-d]pyrimidin-2-one], the IC50 in assay [1] (Homo sapiens, A549, 2 h) was 6.96 µM; in assay [2] (Homo sapiens, MIA PaCa-2, 2 h) it was 0.049 µM; in assay [3], 0.062 µM.

`C=CC(=O)N1C[C@H](C)N(c2nc(=O)n(-c3c(C(C)C)nc(C#N)nc3C(C)C)c3nc(-c4ccccc4F)c(Cl)cc23)C[C@H]1C` [Example 155, 5-[6-Chloro-4-[(2S,5R)-2,5-dimethyl-4-prop-2-enoyl-piperazin-1-yl]-7-(2-fluorophenyl)-2-oxo-pyrido[2,3-d]pyrimidin-1-yl]-4,6-diisopropyl-pyrimidine-2-carbonitrile]: the IC50 in assay [1] (Homo sapiens, A549, 2 h) came to 2.59 µM; in assay [2] (Homo sapiens, MIA PaCa-2, 2 h), 0.063 µM; in assay [3], 0.104 µM.

Regarding `C=CC(=O)N1C[C@H](C)N(c2nc(=O)n(-c3c(C(C)C)nc(OCCOC)nc3C(C)C)c3nc(-c4ccccc4F)c(Cl)cc23)C[C@H]1C` [Example 156, 4-((2S,5R)-4-Acryloyl-2,5-dimethylpiperazin-1-yl)-6-chloro-1-(4,6-diisopropyl-2-(2-methoxyethoxy)pyrimidin-5-yl)-7-(2-fluorophenyl)pyrido[2,3-d]pyrimidin-2(1H)-one], the IC50 in assay [1] (Homo sapiens, A549, 2 h) was above 7.5 µM; in assay [2] (Homo sapiens, MIA PaCa-2, 2 h), 0.148 µM; in assay [3], 0.369 µM.

`C=CC(=O)N1C[C@H](C)N(c2nc(=O)n(-c3c(C(C)C)nc(OCCN(C)C)nc3C(C)C)c3nc(-c4ccccc4F)c(Cl)cc23)C[C@H]1C` [Example 157, 4-((2S,5R)-4-Acryloyl-2,5-dimethylpiperazin-1-yl)-6-chloro-1-(2-(2-(dimethylamino)ethoxy)-4,6-diisopropylpyrimidin-5-yl)-7-(2-fluorophenyl)pyrido[2,3-d]pyrimidin-2(1H)-one]: the IC50 in assay [1] (Homo sapiens, A549, 2 h) is above 7.5 µM; in assay [2] (Homo sapiens, MIA PaCa-2, 2 h), 0.07 µM; in assay [3], 0.064 µM.

Consider `C=CC(=O)N1C[C@H](C)N(c2nc(=O)n(-c3c(C(C)C)nc(S(=O)(=O)CCC)nc3C(C)C)c3nc(-c4ccccc4F)c(Cl)cc23)C[C@H]1C` [Example 158, 4-((2S,5R)-4-Acryloyl-2,5-dimethylpiperazin-1-yl)-6-chloro-1-(4,6-diisopropyl-2-(propylsulfonyl)pyrimidin-5-yl)-7-(2-fluorophenyl)pyrido[2,3-d]pyrimidin-2(1H)-one], for which the IC50 in assay [1] (Homo sapiens, A549, 2 h) amounted to 3.83 µM; in assay [2] (Homo sapiens, MIA PaCa-2, 2 h), 0.191 µM; in assay [3], 0.189 µM.

Consider `C=CC(=O)N1C[C@H](C)N(c2nc(=O)n(-c3c(C(C)C)nc(C=C)nc3C(C)C)c3nc(-c4ccccc4F)c(Cl)cc23)C[C@H]1C` [Example 159, 4-((2S,5R)-4-Acryloyl-2,5-dimethylpiperazin-1-yl)-6-chloro-1-(4,6-diisopropyl-2-vinylpyrimidin-5-yl)-7-(2-fluorophenyl)pyrido[2,3-d]pyrimidin-2(1H)-one], for which the IC50 in assay [1] (Homo sapiens, A549, 2 h) was determined as 3.04 µM; in assay [2] (Homo sapiens, MIA PaCa-2, 2 h), 0.119 µM; in assay [3], 0.046 µM.
